ChEMBL document CHEMBL3608278 (J Med Chem, 2015)

Tests used:
[1] = target: T1, Potassium voltage-gated channel subfamily A member 3 (Homo sapiens, UniProt P22001); design: species or system Blood
[2] = target: T1, Potassium voltage-gated channel subfamily A member 3; assay: cell-based; design: species or system Blood

T1 sequence (P22001 whole entry): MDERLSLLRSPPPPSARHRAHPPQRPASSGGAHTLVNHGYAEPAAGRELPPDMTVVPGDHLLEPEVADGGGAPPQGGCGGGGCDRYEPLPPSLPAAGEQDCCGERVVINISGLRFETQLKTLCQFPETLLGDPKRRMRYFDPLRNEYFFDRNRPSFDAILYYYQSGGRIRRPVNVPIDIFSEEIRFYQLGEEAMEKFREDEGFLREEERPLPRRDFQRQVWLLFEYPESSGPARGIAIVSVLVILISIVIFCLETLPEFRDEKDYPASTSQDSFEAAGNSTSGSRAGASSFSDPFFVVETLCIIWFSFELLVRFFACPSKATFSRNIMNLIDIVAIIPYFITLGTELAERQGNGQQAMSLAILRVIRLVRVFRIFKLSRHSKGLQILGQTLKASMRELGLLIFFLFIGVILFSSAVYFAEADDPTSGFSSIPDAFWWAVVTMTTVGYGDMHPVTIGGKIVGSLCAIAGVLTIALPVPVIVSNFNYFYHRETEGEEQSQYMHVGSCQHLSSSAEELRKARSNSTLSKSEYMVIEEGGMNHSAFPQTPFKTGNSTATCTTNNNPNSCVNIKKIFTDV

CC[C@H](C)[C@@H]1NC(=O)[C@@H](NC(=O)[C@H](CO)NC(=O)[C@@H](N)Cc2cccc3ccccc23)CSSC[C@@H](C(=O)O)NC(=O)[C@H]([C@@H](C)O)NC(=O)CNC(=O)[C@@H]2CSSC[C@@H]3NC(=O)[C@H](CCC(N)=O)NC(=O)[C@H](Cc4ccccc4)NC(=O)[C@H](C)NC(=O)[C@H]([C@@H](C)O)NC(=O)[C@H](CSSC[C@H](NC(=O)[C@H](Cc4ccccc4)NC(=O)[C@H](CO)NC(=O)[C@H](CC(C)C)NC(=O)[C@H](CCCNC(=N)N)NC(=O)[C@H](Cc4ccc(O)cc4)NC(=O)[C@H](CCCCN)NC(=O)[C@H](CCSC)NC(=O)[C@H](CO)NC(=O)[C@H](Cc4cnc[nH]4)NC(=O)[C@H](CCCCN)NC3=O)C(=O)N[C@@H](CCCNC(=N)N)C(=O)N[C@@H](CCCCN)C(=O)N[C@@H]([C@@H](C)O)C(=O)N2)NC(=O)[C@H](CCCNC(=N)N)NC(=O)[C@H](CO)NC(=O)[C@H](CCCCN)NC(=O)[C@@H]2CCCN2C(=O)[C@H]([C@@H](C)CC)NC(=O)[C@H]([C@@H](C)O)NC(=O)[C@H](CC(=O)O)NC1=O
IC50 [1]: 0.248 nM
IC50 [2]: 0.222 nM

CC[C@H](C)[C@@H]1NC(=O)[C@@H](NC(=O)[C@H](CO)NC(=O)[C@@H](N)CCCNC(=N)N)CSSC[C@@H](C(=O)O)NC(=O)[C@H](CCC(=O)O)NC(=O)CNC(=O)[C@@H]2CSSC[C@@H]3NC(=O)[C@H](CCC(N)=O)NC(=O)[C@H](Cc4ccccc4)NC(=O)[C@H](C)NC(=O)[C@H]([C@@H](C)O)NC(=O)[C@H](CSSC[C@H](NC(=O)[C@H](Cc4ccccc4)NC(=O)[C@H](CO)NC(=O)[C@H](CC(C)C)NC(=O)[C@H](CCCNC(=N)N)NC(=O)[C@H](Cc4ccc(O)cc4)NC(=O)[C@H](CCCCN)NC(=O)[C@H](CCSC)NC(=O)[C@H](CO)NC(=O)[C@H](Cc4cnc[nH]4)NC(=O)[C@H](CCCCN)NC3=O)C(=O)N[C@@H](CCCNC(=N)N)C(=O)N[C@@H](CCCCN)C(=O)N[C@@H]([C@@H](C)O)C(=O)N2)NC(=O)[C@H](CCCNC(=N)N)NC(=O)[C@H](CO)NC(=O)[C@H](CCCCN)NC(=O)[C@@H]2CCCN2C(=O)[C@H]([C@@H](C)CC)NC(=O)[C@H]([C@@H](C)O)NC(=O)[C@H](CC(=O)O)NC1=O
IC50 [1]: 0.124 nM

CC[C@H](C)[C@@H]1NC(=O)[C@@H](NC(=O)[C@H](CO)NC(=O)[C@@H](N)CCCNC(=N)N)CSSC[C@@H](C(=O)O)NC(=O)[C@H]([C@@H](C)O)NC(=O)CNC(=O)[C@@H]2CSSC[C@@H]3NC(=O)[C@H](CCC(N)=O)NC(=O)[C@H](Cc4ccccc4)NC(=O)[C@H](C)NC(=O)[C@H]([C@@H](C)O)NC(=O)[C@H](CSSC[C@H](NC(=O)[C@H](Cc4ccccc4)NC(=O)[C@H](CO)NC(=O)[C@H](CC(C)C)NC(=O)[C@H](C)NC(=O)[C@H](Cc4ccc(O)cc4)NC(=O)[C@H](CCCCN)NC(=O)[C@H](CCSC)NC(=O)[C@H](CO)NC(=O)[C@H](Cc4cnc[nH]4)NC(=O)[C@H](CCCCN)NC3=O)C(=O)N[C@@H](CCCNC(=N)N)C(=O)N[C@@H](CCCCN)C(=O)N[C@@H]([C@@H](C)O)C(=O)N2)NC(=O)[C@H](CCCNC(=N)N)NC(=O)[C@H](CO)NC(=O)[C@H](CCCCN)NC(=O)[C@@H]2CCCN2C(=O)[C@H]([C@@H](C)CC)NC(=O)[C@H]([C@@H](C)O)NC(=O)[C@H](CC(=O)O)NC1=O
IC50 [1]: 0.186 nM
IC50 [2]: 0.045 nM

CC[C@H](C)[C@@H]1NC(=O)[C@@H](NC(=O)[C@H](CO)NC(=O)[C@@H](N)CCCNC(=N)N)CSSC[C@@H](C(=O)O)NC(=O)[C@H]([C@@H](C)O)NC(=O)CNC(=O)[C@@H]2CSSC[C@@H]3NC(=O)[C@H](CCC(N)=O)NC(=O)[C@H](Cc4ccccc4)NC(=O)[C@H](C)NC(=O)[C@H]([C@@H](C)O)NC(=O)[C@H](CSSC[C@H](NC(=O)[C@H](Cc4ccccc4)NC(=O)[C@H](CO)NC(=O)[C@H](C)NC(=O)[C@H](CCCNC(=N)N)NC(=O)[C@H](Cc4ccc(O)cc4)NC(=O)[C@H](CCCCN)NC(=O)[C@H](CCSC)NC(=O)[C@H](CO)NC(=O)[C@H](Cc4cnc[nH]4)NC(=O)[C@H](CCCCN)NC3=O)C(=O)N[C@@H](CCCNC(=N)N)C(=O)N[C@@H](CCCCN)C(=O)N[C@@H]([C@@H](C)O)C(=O)N2)NC(=O)[C@H](CCCNC(=N)N)NC(=O)[C@H](CO)NC(=O)[C@H](CCCCN)NC(=O)[C@@H]2CCCN2C(=O)[C@H]([C@@H](C)CC)NC(=O)[C@H]([C@@H](C)O)NC(=O)[C@H](CC(=O)O)NC1=O
IC50 [1]: 0.641 nM
IC50 [2]: 0.199 nM

CC[C@H](C)[C@@H]1NC(=O)[C@@H](NC(=O)[C@H](CO)NC(=O)[C@@H](N)CCCNC(=N)N)CSSC[C@@H](C(=O)O)NC(=O)[C@H]([C@@H](C)O)NC(=O)[C@H](C)NC(=O)[C@@H]2CSSC[C@@H]3NC(=O)[C@H](CCC(N)=O)NC(=O)[C@H](Cc4ccccc4)NC(=O)[C@H](C)NC(=O)[C@H]([C@@H](C)O)NC(=O)[C@H](CSSC[C@H](NC(=O)[C@H](Cc4ccccc4)NC(=O)[C@H](CO)NC(=O)[C@H](CC(C)C)NC(=O)[C@H](CCCNC(=N)N)NC(=O)[C@H](Cc4ccc(O)cc4)NC(=O)[C@H](CCCCN)NC(=O)[C@H](CCSC)NC(=O)[C@H](CO)NC(=O)[C@H](Cc4cnc[nH]4)NC(=O)[C@H](CCCCN)NC3=O)C(=O)N[C@@H](CCCNC(=N)N)C(=O)N[C@@H](CCCCN)C(=O)N[C@@H]([C@@H](C)O)C(=O)N2)NC(=O)[C@H](CCCNC(=N)N)NC(=O)[C@H](CO)NC(=O)[C@H](CCCCN)NC(=O)[C@@H]2CCCN2C(=O)[C@H]([C@@H](C)CC)NC(=O)[C@H]([C@@H](C)O)NC(=O)[C@H](CC(=O)O)NC1=O
IC50 [1]: 0.122 nM
IC50 [2]: 0.059 nM

CC[C@H](C)[C@@H]1NC(=O)[C@@H](NC(=O)[C@H](CO)NC(=O)[C@@H](N)CCCNC(=N)N)CSSC[C@@H](C(=O)O)NC(=O)[C@H]([C@@H](C)O)NC(=O)CNC(=O)[C@@H]2CSSC[C@@H]3NC(=O)[C@H](CCC(N)=O)NC(=O)[C@H](Cc4ccccc4)NC(=O)[C@H](C)NC(=O)[C@H]([C@@H](C)O)NC(=O)[C@H](CSSC[C@H](NC(=O)[C@H](Cc4ccccc4)NC(=O)[C@H](CO)NC(=O)[C@H](CC(C)C)NC(=O)[C@H](CCCNC(=N)N)NC(=O)[C@H](Cc4ccc(O)cc4)NC(=O)[C@H](CCCCN)NC(=O)[C@H](CCSC)NC(=O)[C@H](CO)NC(=O)[C@H](Cc4cnc[nH]4)NC(=O)[C@H](CCCCN)NC3=O)C(=O)N[C@@H](CCCNC(=N)N)C(=O)N[C@@H](CCCCN)C(=O)N[C@@H]([C@@H](C)O)C(=O)N2)NC(=O)[C@H](CCCNC(=N)N)NC(=O)[C@H](CO)NC(=O)[C@H](CCCCN)NC(=O)[C@H](CCC(=O)O)NC(=O)[C@H]([C@@H](C)CC)NC(=O)[C@H]([C@@H](C)O)NC(=O)[C@H](CC(=O)O)NC1=O
IC50 [1]: 0.239 nM
